Data taken from patent US20080312305A1, “Imidazoles as Gaba- B Receptor Modulators” (priority 2005, published 2008).

Target: T1, GABAB receptor (GABABR1a/GABABR2) (Homo sapiens, UniProt O75899+Q9UBS5)
T1 construct: expressed in transfected cells; membranes prepared from the cells
Test: [35S]-GTPγS binding assay, potency of positive allosteric modulator on GABA EC50
Type: biochemical
Details: potency of the positive allosteric modulator (log EC50 for GABA plotted against log modulator concentration)
Description: GABABR1a and GABABR2 were cloned from human brain cDNA and subcloned into pCI-Neo (Promega) and pALTER-1 (Promega), respectively. A GABABR1a-Gαqi5 fusion protein expression vector was constructed using the pCI-Neo-GABABR1a cDNA plasmid and pLEC1-Gαqi5 (Molecular Devices, Calif.). In order to make the Gαqi5 pertussis toxin insensitive, Cys356 was mutated to Gly using standard PCR methodology with the primers 5′-[…]-3′ (forward) and 5′-GCGGCCG […]-3′ (reverse). The Gαqi5mut cDNA was ligated into the BamHI and NotI sites of pcDNA3.0 (Invitrogen). The GABABR1a coding sequence was amplified by PCR from pCI-Neo-GABABR1a using the primers, 5′-[…]-3′ (forward) and 5′-[…]-3′ (reverse) and subcloned into the BamHI site of pcDNA3.0-Gαqi5mut.
For generation of stable cell lines, CHO-K1 cells were grown in Nut mix F-12 (Ham) media supplemented with 10% FBS, 100 U/ml Penicillin and 100 μg/ml Streptomycin at 37° C. in a humidified CO2-incubator. […]
[^35S]-GTPγS binding assays were performed at 30° C. for 45 min in membrane buffer (100 mM NaCl, […], 1 mM EDTA, 50 mM HEPES, pH 7.4) containing 0.025 μg/μl of membrane protein (prepared from the cell lines described above) with 0.01% bovine serum albumin (fatty acid free), 10 μM GDP, 100 μM DTT and 0.53 nM [^35S]-GTPγS (Amersham-Pharmacia Biotech) in a final volume of 200 μl. Non-specific binding was determined in the presence of 20 μM GTPγS. […]

T1 sequence (Q9UBS5 15-961 limits assumed): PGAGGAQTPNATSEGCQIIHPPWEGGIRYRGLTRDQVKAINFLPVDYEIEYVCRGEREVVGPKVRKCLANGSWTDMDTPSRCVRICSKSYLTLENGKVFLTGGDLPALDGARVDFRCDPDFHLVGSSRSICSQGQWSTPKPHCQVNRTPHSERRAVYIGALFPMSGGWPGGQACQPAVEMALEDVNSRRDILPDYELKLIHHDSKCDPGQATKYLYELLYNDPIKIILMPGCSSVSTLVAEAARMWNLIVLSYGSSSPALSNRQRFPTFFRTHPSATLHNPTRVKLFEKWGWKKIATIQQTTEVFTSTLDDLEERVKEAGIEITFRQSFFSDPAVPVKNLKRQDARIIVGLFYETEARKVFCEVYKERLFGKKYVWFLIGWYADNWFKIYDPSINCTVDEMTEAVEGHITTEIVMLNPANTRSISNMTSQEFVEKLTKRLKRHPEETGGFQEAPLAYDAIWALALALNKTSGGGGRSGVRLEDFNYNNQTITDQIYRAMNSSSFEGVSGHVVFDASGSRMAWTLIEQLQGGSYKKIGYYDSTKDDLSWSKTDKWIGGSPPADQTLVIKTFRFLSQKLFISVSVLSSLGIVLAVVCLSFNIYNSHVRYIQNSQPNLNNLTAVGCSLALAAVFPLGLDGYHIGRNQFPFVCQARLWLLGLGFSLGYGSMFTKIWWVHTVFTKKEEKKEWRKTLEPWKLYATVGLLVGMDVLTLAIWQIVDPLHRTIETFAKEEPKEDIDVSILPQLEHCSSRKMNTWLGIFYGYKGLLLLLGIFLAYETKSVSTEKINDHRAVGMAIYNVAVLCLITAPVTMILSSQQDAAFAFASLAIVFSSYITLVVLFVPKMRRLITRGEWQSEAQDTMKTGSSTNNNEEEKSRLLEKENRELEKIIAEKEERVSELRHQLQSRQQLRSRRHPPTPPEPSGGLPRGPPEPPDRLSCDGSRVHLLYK
T1 sequence (O75899 42-941): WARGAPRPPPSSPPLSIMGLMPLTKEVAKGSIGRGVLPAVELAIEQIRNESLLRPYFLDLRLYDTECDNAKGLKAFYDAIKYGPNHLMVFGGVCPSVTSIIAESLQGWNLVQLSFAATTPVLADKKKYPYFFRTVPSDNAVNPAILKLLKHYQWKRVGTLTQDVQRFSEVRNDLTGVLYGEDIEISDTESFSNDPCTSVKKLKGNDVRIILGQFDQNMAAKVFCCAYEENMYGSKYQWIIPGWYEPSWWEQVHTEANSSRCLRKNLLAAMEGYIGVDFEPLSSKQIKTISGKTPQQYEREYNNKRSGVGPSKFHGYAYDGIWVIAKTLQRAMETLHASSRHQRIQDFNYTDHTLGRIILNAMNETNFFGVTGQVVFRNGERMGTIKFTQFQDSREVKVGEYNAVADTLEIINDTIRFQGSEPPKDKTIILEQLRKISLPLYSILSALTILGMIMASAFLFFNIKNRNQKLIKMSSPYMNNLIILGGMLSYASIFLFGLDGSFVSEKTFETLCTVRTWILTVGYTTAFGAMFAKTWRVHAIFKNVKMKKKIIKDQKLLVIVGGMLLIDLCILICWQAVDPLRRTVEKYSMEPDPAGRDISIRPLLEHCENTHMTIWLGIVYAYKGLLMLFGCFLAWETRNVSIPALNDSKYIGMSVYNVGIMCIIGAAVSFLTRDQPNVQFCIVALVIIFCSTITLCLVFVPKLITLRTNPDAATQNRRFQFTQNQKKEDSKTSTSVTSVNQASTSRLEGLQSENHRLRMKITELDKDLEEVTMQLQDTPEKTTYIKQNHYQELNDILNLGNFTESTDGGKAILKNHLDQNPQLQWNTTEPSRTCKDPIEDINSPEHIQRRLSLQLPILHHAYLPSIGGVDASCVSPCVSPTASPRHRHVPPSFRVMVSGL

Compound | EC50 [µM]
CCCc1nc(NC(=O)C2COc3ccccc3O2)c(C(=O)OC(C)(C)C)n1CC(C)C (centres unmarked) [Example 21, Tert-butyl 4-[(2,3-dihydro-1,4-benzodioxin-2-ylcarbonyl)amino]-1-isobutyl-2-propyl-1H-imidazole-5-carboxylate] | 3.68
CCCc1nc(NC(=O)C2COc3ccccc3O2)c(C(=O)OCC)n1CC(C)C (centres unmarked) [Example 25, Ethyl 4-[(2,3-dihydro-1,4-benzodioxin-2-ylcarbonyl)amino]-1-isobutyl-2-propyl-1H-imidazole-5-carboxylate] | 5.54
